Measured values reported in patent US20250188110A1, “SPECIFIC SMALL MOLECULE INHIBITORS THAT BLOCK KMT9 METHYLTRANSFERASE ACTIVITY AND FUNCTION” (ALBERT-LUDWIGS-UNIVERSITÄT FREIBURG, priority 2021, published 2025).

Experiments:
KMT9 [1] = target: T1, KMT9 (Homo sapiens, UniProt Q9Y5N5); assay: Microscale thermophoresis (MST) KMT9 binding; conditions: microscale thermophoresis, His-tag labelled KMT9 (20 nM); read-out: MST
T1 sequence (Q9Y5N5 1-214): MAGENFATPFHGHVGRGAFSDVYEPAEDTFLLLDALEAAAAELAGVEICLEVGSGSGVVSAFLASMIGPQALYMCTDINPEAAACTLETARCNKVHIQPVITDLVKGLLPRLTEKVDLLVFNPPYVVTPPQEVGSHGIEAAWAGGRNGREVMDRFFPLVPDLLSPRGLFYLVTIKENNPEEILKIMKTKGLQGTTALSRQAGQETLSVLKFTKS
T1 sequence (Q9UI30 1-120 isoform Q9UI30-2 partner): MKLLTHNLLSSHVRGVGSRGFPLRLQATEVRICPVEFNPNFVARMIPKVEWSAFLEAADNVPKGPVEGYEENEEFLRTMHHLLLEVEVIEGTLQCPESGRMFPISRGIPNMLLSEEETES
How it was run: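 His-tagged KMT9 (20 nM), RED-Tris-NTA labelled, titrated with varying compound concentrations in 25 mM HEPES pH 7.5, 100 mM NaCl, 1 mM DTT, 0.05% Tween. MST at 40% MST and 100% LED power, Nano-RED excitation; Kd binned A ≤10 nM, B 10–100, C 100–1000, D >1000 nM.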

KMT9 [2] = target: T1, KMT9; assay: KMT9 methyltransferase inhibition assay, 3H-SAM scintillation (entries 1-154); assay type: biochemical; conditions: entries 1-154: 3H-SAM assay, 25 nM KMT9, 5 μM ETF1
How it was run: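 Final 25 nM KMT9, 5 μM ETF1 (residues 140-275), 0.3 μM 3H-SAM plus 0.7 μM SAM in pH 8.5 BTP buffer, 2 h at 30° C. TCA-quenched, filter-washed, methylation counted by scintillation; % inhibition vs DMSO and no-enzyme controls, IC50 from four-parameter fit.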

KMT9 [3] = target: T1, KMT9; assay: KMT9 thermal shift assay (SyproOrange); assay type: binding; conditions: ΔTm; 500 µM compound, 2 μM KMT9, 5X SO; read-out: Thermal shift
How it was run: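 Recombinant KMT9 was incubated with compound and SyproOrange at 25° C in 50 mM BTP pH 8.5, 1 mM MgCl2, 1 mM DTT. It was then heated from 20° C to 95° C at 1° C per 15 s with fluorescence read each step. Tm came from a Boltzmann sigmoidal fit; ΔTm relative to DMSO control, binned in 5 K ranges.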

Kd (KMT9 [1]) [nM]	IC50 (KMT9 [2]) [nM]	ΔTm at 500 µM (KMT9 [3]) [°C]	Compound
10 to 100	100 to 1000	15 to 20	Nc1ncnc2c1c(-c1ncn[nH]1)cn2[C@@H]1C[C@H](CNCCCNCCc2ccccc2)[C@@H](O)[C@H]1O [475 (349), (1R,2S,3R,5R)-3-(4-amino-5-(1H-1,2,4-triazol-5-yl)-7H-pyrrolo[2,3-d]pyrimidin-7-yl)-5-(((3-(phenethylamino)propyl)amino)methyl) cyclopentane-1,2-diol]
100 to 1000	100 to 1000	15 to 20	Cn1ccc(-c2cn([C@@H]3C[C@H](CNCCCNCCc4ccccc4)[C@@H](O)[C@H]3O)c3ncnc(N)c23)n1 [476 (350), (1R,2S,3R,5R)-3-(4-Amino-5-(1-methyl-1H-pyrazol-3-yl)-7H-pyrrolo[2,3-d]pyrimidin-7-yl)-5-(((3-(phenethylamino)propyl)amino)methyl) cyclopentane-1,2-diol]
10 to 100	1000 to 10000	15 to 20	Nc1ncnc2c1c(-c1ccn(Cc3ccccc3)n1)cn2[C@@H]1C[C@H](CNCCCNCCc2ccccc2)[C@@H](O)[C@H]1O [477 (351), (1R,2S,3R,5R)-3-(4-Amino-5-(1-benzyl-1H-pyrazol-3-yl)-7H-pyrrolo[2,3-d]pyrimidin-7-yl)-5-(((3-(phenethylamino)propyl)amino)methyl) cyclopentane-1,2-diol]
10 to 100	1000 to 10000	15 to 20	Cn1cc(-c2cn([C@@H]3C[C@H](CNCCCNCCc4ccccc4)[C@@H](O)[C@H]3O)c3ncnc(N)c23)cn1 [478 (352), (1R,2S,3R,5R)-3-(4-Amino-5-(1-methyl-1H-pyrazol-4-yl)-7H-pyrrolo[2,3-d]pyrimidin-7-yl)-5-(((3-(phenethylamino)propyl)amino)methyl) cyclopentane-1,2-diol]
100 to 1000	1000 to 10000	10 to 15	Nc1ncnc2c1c(C1CCOCC1)cn2[C@@H]1C[C@H](CNCCCNCCc2ccccc2)[C@@H](O)[C@H]1O [479 (353), (1R,2S,3R,5R)-3-(4-Amino-5-(tetrahydro-2H-pyran-4-yl)-7H-pyrrolo[2,3-d]pyrimidin-7-yl)-5-(((3-(phenethylamino)propyl)amino)methyl) cyclopentane-1,2-diol]
> 1000	1000 to 10000	≤ 10	CN1CCC(c2cn([C@@H]3C[C@H](CNCCCNCCc4ccccc4)[C@@H](O)[C@H]3O)c3ncnc(N)c23)CC1 [480 (354), (1R,2S,3R,5R)-3-(4-Amino-5-(1-methylpiperidin-4-yl)-7H-pyrrolo[2,3-d]pyrimidin-7-yl)-5-(((3-(phenethylamino)propyl)amino)methyl) cyclopentane-1,2-diol]
100 to 1000	1000 to 10000	10 to 15	CC(=O)N1CCC(c2cn([C@@H]3C[C@H](CNCCCNCCc4ccccc4)[C@@H](O)[C@H]3O)c3ncnc(N)c23)CC1 [481 (355), 1-(4-(4-Amino-7-((1R,2S,3R,4R)-2,3-dihydroxy-4-(((3-(phenethylamino)propyl)amino)methyl)cyclopentyl)-7H-pyrrolo[2,3-d]pyrimidin-5-yl)piperidin-1-yl)ethan-1-one]
> 1000	1000 to 10000	10 to 15	CN1CC=C(c2cn([C@@H]3C[C@H](CNCCCNCCc4ccccc4)[C@@H](O)[C@H]3O)c3ncnc(N)c23)CC1 [482 (356), (1R,2S,3R,5R)-3-(4-amino-5-(1-methyl-1,2,3,6-tetrahydropyridin-4-yl)-7H-pyrrolo[2,3-d]pyrimidin-7-yl)-5-(((3-(phenethylamino)propyl)amino)methyl) cyclopentane-1,2-diol]
100 to 1000	1000 to 10000	10 to 15	N#Cc1cn([C@@H]2C[C@H](CNCCCNCCc3ccccc3)[C@@H](O)[C@H]2O)c2ncnc(N)c12 [483 (357), 4-Amino-7-((1R,2S,3R,4R)-2,3-dihydroxy-4-(((3-(phenethylamino)propyl)amino)methyl)cyclopentyl)-7H-pyrrolo[2,3-d]pyrimidine-5-carbonitrile]
10 to 100	100 to 1000	15 to 20	Nc1ncnc2c1c(Br)cn2[C@@H]1C[C@H](CN2CC(CNCCc3ccccc3)C2)[C@@H](O)[C@H]1O [484 (358), (1R,2S,3R,5R)-3-(4-Amino-5-bromo-7H-pyrrolo[2,3-d]pyrimidin-7-yl)-5-((3-((phenethylamino)methyl)azetidin-1-yl)methyl) cyclopentane-1,2-diol]
10 to 100	1000 to 10000	15 to 20	C=Cc1cn([C@@H]2C[C@H](CN3CC(CNCCc4ccc(F)cc4)C3)[C@@H](O)[C@H]2O)c2ncnc(N)c12 [485 (359), (1R,2S,3R,5R)-3-(4-Amino-5-vinyl-7H-pyrrolo[2,3-d]pyrimidin-7-yl)-5-((3-(((4-fluorophenethyl)amino)methyl)azetidin-1-yl)methyl) cyclopentane-1,2-diol]
10 to 100	1000 to 10000	15 to 20	Nc1ncnc2c1c(-c1nccs1)cn2[C@@H]1C[C@H](C2CCNCC2)[C@@H](O)[C@H]1O [487 (360)]
> 1000	> 10000	≤ 10	Nc1ncnc2c1ncn2[C@@H]1O[C@H](C(=O)NCCCNC(=O)Nc2ccccc2)[C@@H](O)[C@H]1O [684 (202), (2S,3S,4R,5R)-5-(6-amino-9H-purin-9-yl)-3,4-dihydroxy-N-(3-(3-phenylureido)propyl) tetrahydrofuran-2-carboxamide]
> 1000	> 10000	≤ 10	CNc1ncnc2c1ccn2[C@@H]1C[C@H](COCC(=O)NCCc2ccccc2)[C@@H](O)[C@H]1O [689 (298), 2-(((1R,2R,3S,4R)-2,3-Dihydroxy-4-(4-(methylamino)-7H-pyrrolo[2,3-d]pyrimidin-7-yl)cyclopentyl)methoxy)-N-phenethylacetamide]
> 1000	> 10000	≤ 10	Nc1ncnc2c1c(-c1nccs1)cn2[C@@H]1C[C@H](CC2CNC2)[C@@H](O)[C@H]1O [Compound 486, (1R,2S,3R,5S)-3-(4-amino-5-(thiazol-2-yl)-7H-pyrrolo[2,3-d]pyrimidin-7-yl)-5-(azetidin-3-ylmethyl) cyclopentane-1,2-diol]
10 to 100	1000 to 10000	10 to 15	Nc1ncnc2c1c(-c1nc(Cc3ccccc3)cs1)cn2[C@@H]1C[C@H](C2CCNCC2)[C@@H](O)[C@H]1O [Compound 488, (1R,2S,3R,5R)-3-(4-amino-5-(4-benzylthiazol-2-yl)-7H-pyrrolo[2,3-d]pyrimidin-7-yl)-5-(piperidin-4-yl)cyclopentane-1,2-diol]
10 to 100	1000 to 10000	15 to 20	Nc1ncnc2c1c(-c1ccn(Cc3ccccc3)n1)cn2[C@@H]1C[C@H](C2CCNCC2)[C@@H](O)[C@H]1O [Compound 489, (1R,2S,3R,5R)-3-(4-amino-5-(1-benzyl-1H-pyrazol-3-yl)-7H-pyrrolo[2,3-d]pyrimidin-7-yl)-5-(piperidin-4-yl)cyclopentane-1,2-diol]
100 to 1000	1000 to 10000	10 to 15	O[C@@H]1[C@H](O)[C@@H](C2CCNCC2)C[C@H]1n1cc2c3c(ncnc31)NCCC2 [Compound 490, (1S,2R,3R,5R)-3-(piperidin-4-yl)-5-(6,7,8,9-tetrahydro-2H-2,3,5,6-tetraazabenzo[cd]azulen-2-yl)cyclopentane-1,2-diol]
≤ 10	< 100	15 to 20	Nc1ncnc2c1c(-c1nccs1)cn2[C@@H]1C[C@H](CN(CCCNCCc2ccc(F)cc2)c2cn[nH]c2)[C@@H](O)[C@H]1O [Compound 599, (1R,2S,3R,5R)-3-[4-Amino-5-(1,3-thiazol-2-yl)pyrrolo[2,3-d]pyrimidin-7-yl]-5-{[(3-{[2-(4-fluorophenyl)ethyl]amino}propyl)(1H-pyrazol-4-yl)amino]methyl}cyclopentane-1,2-diol]
≤ 10	< 100	15 to 20	CS(=O)(=O)n1ccc(-c2cn([C@@H]3C[C@H](CNCCCNCCc4ccccc4)[C@@H](O)[C@H]3O)c3ncnc(N)c23)n1 [Compound 600, (1R,2S,3R,5R)-3-(4-Amino-5-(1-(methylsulfonyl)-1H-pyrazol-3-yl)-7H-pyrrolo[2,3-d]pyrimidin-7-yl)-5-(((3-(phenethylamino)propyl)amino)methyl)cyclopentane-1,2-diol]
